According to US10597388B2, “Pyridazinone herbicides” (FMC CORPORATION, priority 2014, dated 2020):

How the values were obtained:
Assay in all cases: Test D controlled growth environment herbicide test, pre- and postemergence
Type in all cases: in vivo
[1] = test system: foxtail, green (green foxtail, Setaria viridis)
Description: (§1) Seeds of plant species selected from bluegrass (annual bluegrass, Poa annua), blackgrass (Alopecurus myosuroides), Canada thistle (Cirsium arvense), canarygrass (Phalaris minor), chickweed (common chickweed, Stellaria media), geranium, cutleaf (cutleaf geranium, Geranium dissectum), galium (catchweed bedstraw, Galium aparine), bromegrass, downy (downy bromegrass, Bromus tectorum), field poppy (Papaver rhoeas), field violet (Viola arvensis), foxtail, green (green foxtail, Setaria viridis), deadnettle (henbit deadnettle, Lamium amplexicaule), ryegrass, Italian (Italian ryegrass, Lolium multiflorum), kochia (Kochia scoparia), lambsquarters (Chenopodium album), oilseed rape (Brassica napus), pigweed (Amaranthus retroflexus), chamomile (scentless chamomile, Matricaria inodora), Russian thistle (Salsola kali), speedwell (bird's-eye speedwell, Veronica persica), barley, spring (spring barley, Hordeum vulgare), wheat, spring (spring wheat, Triticum aestivum), buckwheat, wild (wild buckwheat, Polygonum convolvulus), mustard, wild (wild mustard, Sinapis arvensis), oat, wild (wild oat, Avena fatua), radish, wild (wild radish, Raphanus raphanistrum), windgrass (Apera spica-venti), barley, winter (winter barley, Hordeum vulgare), and wheat, winter (winter wheat, Triticum aestivum) were planted into a silt loam soil and treated preemergence with test chemicals formulated in a non-phytotoxic solvent mixture which included a surfactant.
(§2) At the same time, these species were planted in pots containing Redi-Earth® planting medium (Scotts Company, 14111 Scottslawn Road, Marysville, Ohio 43041) comprising spaghnum peat moss, vermiculite, wetting agent and starter nutrients and treated with postemergence applications of the test chemicals formulated in the same manner. Plants ranged in height from 2 to 18 cm (1- to 4-leaf stage). Treated plants and controls were maintained in a controlled growth environment for 14 to 21 d after which time all species were compared to controls and visually evaluated. Plant response ratings, summarized in Table D, are based on a scale of 0 to 100 where 0 is no effect and 100 is complete control. A dash (-) response means no test result.

[2] = test system: chickweed (common chickweed, Stellaria media)
Description: as §1, §2

[3] = test system: barley, winter (winter barley, Hordeum vulgare)
Description: as §1, §2

[4] = test system: deadnettle (henbit deadnettle, Lamium amplexicaule)
Description: as §1, §2

[5] = test system: pigweed (Amaranthus retroflexus)
Description: as §1, §2

kochia (Kochia scoparia) = test system: kochia (Kochia scoparia)
Description: as §1, §2

[6] = test system: galium (catchweed bedstraw, Galium aparine)
Description: as §1, §2

[7] = test system: lambsquarters (Chenopodium album)
Description: as §1, §2

[8] = test system: blackgrass (Alopecurus myosuroides)
Description: as §1, §2

[9] = test system: windgrass (Apera spica-venti)
Description: as §1, §2

[10] = test system: wheat, winter (winter wheat, Triticum aestivum)
Description: as §1, §2

[11] = test system: ryegrass, Italian (Italian ryegrass, Lolium multiflorum)
Description: as §1, §2

[12] = test system: speedwell (bird's-eye speedwell, Veronica persica)
Description: as §1, §2

[13] = Postemergence, 31 g ai/ha, scale 0 to 100 (0 no effect, 100 complete control)
[14] = Postemergence, 125 g ai/ha, visual rating on scale 0 (no effect) to 100 (complete control), 14 to 21 d
[15] = Postemergence, 250 g ai/ha, scale 0 to 100 (0 no effect, 100 complete control)
[16] = Preemergence, 62 g ai/ha, scale 0 to 100 (0 no effect, 100 complete control)
[17] = Preemergence, 125 g ai/ha, scale 0 to 100 (0 no effect, 100 complete control)
[18] = Preemergence, 250 g ai/ha, scale 0 to 100 (0 no effect, 100 complete control)
[19] = postemergence, 62 g ai/ha, scale 0 to 100, 0 no effect, 100 complete control

Structure (SMILES): COc1nn(C)c(=O)c(-c2c(C)ccc3ccccc23)c1O [Compound 54]
- Foxtail, Green plant response rating [1, 13]: 55
- Plant response rating, Foxtail, Green [1, 14]: 70
- Plant response rating, Foxtail, Green [1, 15]: 80
- Plant response rating (scale of 0 to 100), Foxtail, Green ([1]; Preemergence, 31 g ai/ha): 50
- Plant response rating, Foxtail, Green [1, 16]: 60
- Plant response rating, Foxtail, Green [1, 17]: 65
- Plant response rating, Foxtail, Green [1, 18]: 100
- Plant response rating, Foxtail, Green [1, 19]: 65
- Chickweed plant response rating [2, 13]: 100
- Plant response rating, Chickweed [2, 14]: 100
- Plant response rating, Chickweed [2, 15]: 100
- Plant response rating (scale of 0 to 100), Chickweed ([2]; Preemergence, 31 g ai/ha): 85
- Plant response rating, Chickweed [2, 16]: 90
- Plant response rating, Chickweed [2, 17]: 95
- Plant response rating, Chickweed [2, 18]: 100
- Plant response rating, Chickweed [2, 19]: 100
- Barley, Winter plant response rating [3, 13]: 0
- Plant response rating, Barley, Winter [3, 14]: 5
- Plant response rating, Barley, Winter [3, 15]: 30
- Plant response rating (scale of 0 to 100), Barley, Winter ([3]; Preemergence, 31 g ai/ha): 0
- Plant response rating, Barley, Winter [3, 16]: 0
- Plant response rating, Barley, Winter [3, 17]: 0
- Plant response rating, Barley, Winter [3, 18]: 0
- Plant response rating, Barley, Winter [3, 19]: 0
- Deadnettle plant response rating [4, 13]: 100
- Plant response rating, Deadnettle [4, 14]: 100
- Plant response rating, Deadnettle [4, 15]: 100
- Plant response rating (scale of 0 to 100), Deadnettle ([4]; Preemergence, 31 g ai/ha): 0
- Plant response rating, Deadnettle [4, 16]: 60
- Plant response rating, Deadnettle [4, 17]: 70
- Plant response rating, Deadnettle [4, 18]: 95
- Plant response rating, Deadnettle [4, 19]: 100
- Pigweed plant response rating [5, 13]: 100
- Plant response rating, Pigweed [5, 14]: 100
- Plant response rating, Pigweed [5, 15]: 100
- Plant response rating (scale of 0 to 100), Pigweed ([5]; Preemergence, 31 g ai/ha): 80
- Plant response rating, Pigweed [5, 16]: 100
- Plant response rating, Pigweed [5, 17]: 100
- Plant response rating, Pigweed [5, 18]: 100
- Plant response rating, Pigweed [5, 19]: 100
- Kochia plant response rating (kochia (Kochia scoparia); [13]): 15
- Plant response rating, Kochia (kochia (Kochia scoparia); [14]): 100
- Plant response rating, Kochia (kochia (Kochia scoparia); [15]): 100
- Plant response rating (scale of 0 to 100), Kochia (kochia (Kochia scoparia); Preemergence, 31 g ai/ha): 25
- Plant response rating, Kochia (kochia (Kochia scoparia); [16]): 60
- Plant response rating, Kochia (kochia (Kochia scoparia); [17]): 30
- Plant response rating, Kochia (kochia (Kochia scoparia); [18]): 45
- Plant response rating, Kochia (kochia (Kochia scoparia); [19]): 95
- Galium plant response rating [6, 13]: 100
- Plant response rating, Galium [6, 14]: 100
- Plant response rating, Galium [6, 15]: 100
- Plant response rating (scale of 0 to 100), Galium ([6]; Preemergence, 31 g ai/ha): 0
- Plant response rating, Galium [6, 16]: 45
- Plant response rating, Galium [6, 17]: 85
- Plant response rating, Galium [6, 18]: 100
- Plant response rating, Galium [6, 19]: 100
- Lambsquarters plant response rating [7, 13]: 95
- Plant response rating, Lambsquarters [7, 14]: 95
- Plant response rating, Lambsquarters [7, 15]: 100
- Plant response rating (scale of 0 to 100), Lambsquarters ([7]; Preemergence, 31 g ai/ha): 65
- Plant response rating, Lambsquarters [7, 16]: 65
- Plant response rating, Lambsquarters [7, 17]: 95
- Plant response rating, Lambsquarters [7, 18]: 95
- Plant response rating, Lambsquarters [7, 19]: 95
- Blackgrass plant response rating [8, 13]: 25
- Plant response rating, Blackgrass [8, 14]: 70
- Plant response rating, Blackgrass [8, 15]: 75
- Plant response rating (scale of 0 to 100), Blackgrass ([8]; Preemergence, 31 g ai/ha): 15
- Plant response rating, Blackgrass [8, 16]: 30
- Plant response rating, Blackgrass [8, 17]: 50
- Plant response rating, Blackgrass [8, 18]: 75
- Plant response rating, Blackgrass [8, 19]: 40
- Windgrass plant response rating [9, 13]: 35
- Plant response rating, Windgrass [9, 14]: 70
- Plant response rating, Windgrass [9, 15]: 75
- Plant response rating (scale of 0 to 100), Windgrass ([9]; Preemergence, 31 g ai/ha): 0
- Plant response rating, Windgrass [9, 16]: 50
- Plant response rating, Windgrass [9, 17]: 70
- Plant response rating, Windgrass [9, 18]: 95
- Plant response rating, Windgrass [9, 19]: 45
- Wheat, Winter plant response rating [10, 13]: 0
- Plant response rating, Wheat, Winter [10, 14]: 25
- Plant response rating, Wheat, Winter [10, 15]: 30
- Plant response rating (scale of 0 to 100), Wheat, Winter ([10]; Preemergence, 31 g ai/ha): 0
- Plant response rating, Wheat, Winter [10, 16]: 0
- Plant response rating, Wheat, Winter [10, 17]: 15
- Plant response rating, Wheat, Winter [10, 18]: 35
- Plant response rating, Wheat, Winter [10, 19]: 5
- Ryegrass, Italian plant response rating [11, 13]: 80
- Plant response rating, Ryegrass, Italian [11, 14]: 90
- Plant response rating, Ryegrass, Italian [11, 15]: 95
- Plant response rating (scale of 0 to 100), Ryegrass, Italian ([11]; Preemergence, 31 g ai/ha): 35
- Plant response rating, Ryegrass, Italian [11, 16]: 90
- Plant response rating, Ryegrass, Italian [11, 17]: 100
- Plant response rating, Ryegrass, Italian [11, 18]: 100
- Plant response rating, Ryegrass, Italian [11, 19]: 85
- Speedwell plant response rating [12, 13]: 75
- Plant response rating, Speedwell [12, 14]: 100
- Plant response rating, Speedwell [12, 15]: 100
- Plant response rating (scale of 0 to 100), Speedwell ([12]; Preemergence, 31 g ai/ha): 100
- Plant response rating, Speedwell [12, 16]: 95
- Plant response rating, Speedwell [12, 17]: 100
- Plant response rating, Speedwell [12, 18]: 100
- Plant response rating, Speedwell [12, 19]: 100
